# Results published in patent publication US11952363B2, “Piperazine compounds for the treatment of autoimmune disease” (Hoffmann-La Roche Inc., priority 2018, dated 2024).
# Experiments:
# human TLR9 = target: T1, human TLR9 (Homo sapiens, UniProt Q9NR96); assay: HEK293-Blue-hTLR-9 cells assay (SEAP reporter, ODN2006 stimulation); assay type: cell-based; settings: HEK293-Blue-hTLR9 cells, ODN2006 ligand, 20 hrs incubation; read-out: HEK/hTLR9 IC50
# T1 sequence (Q9NR96 26-1032): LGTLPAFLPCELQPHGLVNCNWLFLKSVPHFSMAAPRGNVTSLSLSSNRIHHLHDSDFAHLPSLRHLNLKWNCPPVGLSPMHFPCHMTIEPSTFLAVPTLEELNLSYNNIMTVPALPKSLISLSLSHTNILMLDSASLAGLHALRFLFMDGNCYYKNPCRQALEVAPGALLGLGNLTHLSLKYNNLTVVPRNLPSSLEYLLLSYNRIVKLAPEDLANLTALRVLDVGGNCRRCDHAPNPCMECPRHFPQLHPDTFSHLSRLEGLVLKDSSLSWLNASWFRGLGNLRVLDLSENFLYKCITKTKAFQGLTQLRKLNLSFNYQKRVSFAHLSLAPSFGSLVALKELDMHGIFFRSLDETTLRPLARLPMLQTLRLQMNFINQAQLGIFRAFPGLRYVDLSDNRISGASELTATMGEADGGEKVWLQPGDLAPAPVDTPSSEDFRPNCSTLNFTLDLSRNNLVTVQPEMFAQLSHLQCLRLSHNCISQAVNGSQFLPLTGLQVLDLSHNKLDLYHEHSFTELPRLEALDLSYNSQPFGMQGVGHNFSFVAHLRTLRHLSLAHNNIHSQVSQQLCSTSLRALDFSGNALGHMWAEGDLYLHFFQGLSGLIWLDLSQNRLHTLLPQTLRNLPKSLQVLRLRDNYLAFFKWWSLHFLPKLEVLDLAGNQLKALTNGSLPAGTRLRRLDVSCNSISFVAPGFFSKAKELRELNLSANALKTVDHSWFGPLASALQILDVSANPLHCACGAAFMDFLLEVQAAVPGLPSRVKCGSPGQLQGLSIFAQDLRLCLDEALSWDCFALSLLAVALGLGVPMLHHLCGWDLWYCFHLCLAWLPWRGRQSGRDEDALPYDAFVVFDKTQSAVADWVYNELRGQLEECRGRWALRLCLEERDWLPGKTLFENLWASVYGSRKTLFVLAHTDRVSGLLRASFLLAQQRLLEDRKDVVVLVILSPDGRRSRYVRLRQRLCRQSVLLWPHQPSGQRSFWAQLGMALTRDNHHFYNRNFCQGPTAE
# Experimental: The following tests were carried out in order to determine the activity of the compounds of formula (I) in HEK293-Blue-hTLR-7/8/9 cells assay.
# A stable HEK293-Blue-hTLR-9 cell line was purchased from InvivoGen (Cat.#: hkb-htlr9, San Diego, California, USA). These cells were originally designed for studying the stimulation of human TLR9 by monitoring the activation of NF-κB. A SEAP (secreted embryonic alkaline phosphatase) reporter gene was placed under the control of the IFN-β minimal promoter fused to five NF-κB and. AP-1-binding sites. The SEAP was induced by activating NF-κB and AP-1 via stimulating HEK-Blue hTLR9 cells with TLR9 ligands. Therefore the reporter expression was declined by TLR9 antagonist under the stimulation of a ligand, such as ODN2006 (Cat.#: tlr1-2006-1, Invivogen, San Diego, California, USA), for incubation of 20 his. The cell culture supernatant SEAP reporter activity was determined using QUANTI-Blue™ kit (Cat.#: rep-qb1, Invivogen, San Diego, California, USA) at a wavelength of 640 nm, a detection medium that turns purple or blue in the presence of alkaline phosphatase.
# HEK293-Blue-hTLR9 cells were incubated at a density of 250,000-450,000 cells/mL in a volume of 170 μL in a 96-well plate in Dulbecco's Modified Eagle's medium (DMEM) containing 4.5 g/L glucose, 50 U/mL penicillin, […], […], 2 mM L-glutamine, 10% (v/v) heat-inactivated fetal bovine serum with addition of 20 μL test compound in a serial dilution in the presence of final DMSO at 1% and 10 p L of 20uM ODN2006 in above DMEM, perform incubation under 37° C. in a CO2 incubator for 20 hrs. Then 20 μL of the supernatant from each well was incubated with 180 μL Quanti-blue substrate solution at 37° C. for 2 h and the absorbance was read at 620˜655 nm using a spectrophotometer. The signaling pathway that TLR9 activation leads to downstream NF-κB activation has been widely accepted, and therefore similar reporter assay was modified for evaluating TLR9 antagonist.
# [1] = Human microsomal stability assay; assay type: in vitro ADME; settings: human liver microsomes 0.5 mg/mL, 1 μM test compound, 37° C., pH 7.4
# Experimental: Human liver microsomes (Cat.NO.: 452117, Corning, USA) were preincubated with test compound for 10 minutes at 37° C. in 100 mM potassium phosphate buffer, pH 7.4. The reactions were initiated by adding NADPH regenerating system. The final incubation mixtures contained 1 μM test compound, 0.5 mg/mL liver microsomal protein, 1 mM MgCl2, 1 mM NADP, 1 unit/mL isocitric dehydrogenase and 6 mM isocitric acid in 100 mM potassium phosphate buffer, pH 7.4. After incubation times of 0, 3, 6, 9, 15 and 30 minutes at 37° C., 300 μL of cold ACN (including internal standard) was added to 100 μL incubation mixture to terminate the reaction. Following precipitation and centrifugation, 100 uL supernatant will be taken out and added 300 uL water. The amount of compound remaining in the samples was determined by LC-MS/MS. Controls of no NADPH regenerating system at zero and 30 minutes were also prepared and analyzed.
# hERG = target: T2, hERG (Homo sapiens, UniProt Q12809); assay: hERG channel inhibition assay (patch-clamp, CHO hERG cells); assay type: cell-based; settings: for IC50 / IC20: CHO hERG cells, whole-cell patch-clamp; for IC20: human, CHO cells stably expressing hERG; for hERG IC20/TLR7 IC50 / hERG IC20/TLR8 IC50 / hERG IC20/TLR9 IC50: safety ratio, >30 suggests sufficient window
# T2 construct: expressed in transfected cells
# T2 sequence (Q12809 whole entry): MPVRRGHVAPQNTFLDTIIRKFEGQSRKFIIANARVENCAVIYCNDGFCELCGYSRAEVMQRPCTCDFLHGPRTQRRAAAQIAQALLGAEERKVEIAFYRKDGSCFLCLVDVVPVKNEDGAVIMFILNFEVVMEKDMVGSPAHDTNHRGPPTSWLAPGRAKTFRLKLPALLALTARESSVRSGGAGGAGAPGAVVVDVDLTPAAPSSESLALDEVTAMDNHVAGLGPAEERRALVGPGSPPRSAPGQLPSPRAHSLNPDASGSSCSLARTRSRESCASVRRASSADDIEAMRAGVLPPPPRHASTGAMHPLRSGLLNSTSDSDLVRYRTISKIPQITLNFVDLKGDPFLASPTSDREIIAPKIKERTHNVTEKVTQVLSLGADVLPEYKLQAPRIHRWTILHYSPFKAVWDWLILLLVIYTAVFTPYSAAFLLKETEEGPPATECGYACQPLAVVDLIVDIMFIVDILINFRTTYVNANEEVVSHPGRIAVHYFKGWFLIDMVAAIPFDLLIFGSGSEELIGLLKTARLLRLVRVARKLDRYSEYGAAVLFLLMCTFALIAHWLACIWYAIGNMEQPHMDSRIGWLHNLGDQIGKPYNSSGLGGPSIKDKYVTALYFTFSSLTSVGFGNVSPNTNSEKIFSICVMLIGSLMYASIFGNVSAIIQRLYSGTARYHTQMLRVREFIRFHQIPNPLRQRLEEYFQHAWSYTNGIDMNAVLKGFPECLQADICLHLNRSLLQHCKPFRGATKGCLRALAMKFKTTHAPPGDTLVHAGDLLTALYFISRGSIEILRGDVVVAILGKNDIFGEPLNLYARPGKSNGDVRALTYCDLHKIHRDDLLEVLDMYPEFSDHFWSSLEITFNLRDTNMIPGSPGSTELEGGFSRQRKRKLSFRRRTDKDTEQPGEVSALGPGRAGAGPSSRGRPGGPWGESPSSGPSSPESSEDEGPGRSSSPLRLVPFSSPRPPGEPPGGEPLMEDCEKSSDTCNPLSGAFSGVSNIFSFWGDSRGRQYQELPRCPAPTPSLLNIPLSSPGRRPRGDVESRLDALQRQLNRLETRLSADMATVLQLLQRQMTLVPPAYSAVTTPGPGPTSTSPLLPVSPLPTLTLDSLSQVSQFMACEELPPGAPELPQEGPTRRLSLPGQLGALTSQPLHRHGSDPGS
# Experimental: The hERG K^+ channels were cloned in humans and stably expressed in a CHO (Chinese hamster ovary) cell line. CHOhERG cells were used for patch-clamp (voltage-clamp, whole-cell) experiments. Cells were stimulated by a voltage pattern to activate hERG channels and conduct I KhERG currents (rapid delayed outward rectifier potassium current of the hERG channel). After the cells were stabilized for a few minutes, the amplitude and kinetics of I KhERG were recorded at a stimulation frequency of 0.1 Hz (6 bpm). Thereafter, the test compound was added to the preparation at increasing concentrations. For each concentration, an attempt was made to reach a steady-state effect, usually, this was achieved within 3-10 min at which time the next highest concentration was applied. The amplitude and kinetics of IKhERG are recorded in each concentration of the drug which were compared to the control values (taken as 100%). […]
Structure (SMILES),IC50 (human TLR9) [nM],Clearance of Human microsome [1] [mL/min/kg],IC50 (hERG) [nM],IC20 (hERG) [nM],hERG IC20/TLR7 IC50 (hERG),hERG IC20/TLR8 IC50 (hERG),hERG IC20/TLR9 IC50 (hERG)
"C[C@@H]1CN(c2ccc(C#N)c3ncccc23)C[C@H](C)N1Cc1ccc(N2CCNCC2)nc1 [Example 3, 5-[(3R,5S)-3,5-Dimethyl-4-[(6-piperazin-1-yl-3-pyridyl)methyl]piperazin-1-yl]quinoline-8-carbonitrile]",93,11.6,> 20000,7400,383,240,79
"C[C@@H]1CN(c2ccc(C#N)c3ncccc23)C[C@H](C)N1Cc1ncc(N2CCNCC2)cn1 [Example 4, 5-[(3S,5R)-3,5-Dimethyl-4-[(5-piperazin-1-ylpyrimidin-2-yl)methyl]piperazin-1-yl]quinoline-8-carbonitrile]",137,10.4,> 20000,6300,384,355,45
"C[C@@H]1CN(c2ccc(C#N)c3ncccc23)C[C@H](C)N1CC(=O)N1Cc2ccc(N3CCNCC3)cc2C1 [Example 16, 5-[(3R,5S)-3,5-Dimethyl-4-[2-oxo-2-(5-piperazin-1-ylisoindolin-2-yl)ethyl]piperazin-1-yl]quinoline-8-carbonitrile]",75,9.4,> 20000,> 10000,>289,>182,>134
"CC1CN(c2ccc(C#N)c3ncccc23)CCN1CC(=O)Nc1ccc(N2CCNCC2)cc1 (stereo not drawn) [Example 17, 2-[4-(8-Cyano-5-quinolyl)-2-methyl-piperazin-1-yl]-N-(4-piperazin-1-ylpheny)acetamide]",103,6.9,–,–,–,–,–
"CC1CN(c2ccc(C#N)c3ncccc23)CCN1CC(=O)Nc1ccc2c(c1)CCNC2 (stereo not drawn) [Example 18, 2-[4-(8-Cyano-5-quinolyl)-2-methyl-piperazin-1yl]-N-(1,2,3,4-tetrahydroisoquinolin-6-yl)acetamide]",119,6.3,–,–,–,–,–
"CC1CN(c2ccc(C#N)c3ncccc23)CCN1CC(=O)N1CCC(C2CCN(C)CC2)CC1 (stereo not drawn) [Example 19, 5-[3-methyl-4-[2-[4-(1-methyl-4-piperidyl)-1-piperidyl]-2-oxo-ethyl]piperazin-1-yl]quinoline-8-carbonitrile]",116,6.7,–,–,–,–,–
